For data set [1], the system named is S. aureus ATCC 29213. The class given is cell-based, Staphylococcus aureus.
For data set [2], the system named is C. albicans ATCC 10231. The class given is cell-based, Candida albicans.
The subject of data set [3] is P. aeruginosa ATCC 27853. The class given is cell-based, Pseudomonas aeruginosa.
Data set [4] deals with E. coli ATCC 25922. The class given is cell-based, Escherichia coli.
Data set [5] has as its system human erythrocytes. The class given is cell-based. Particulars: pH 7.2. The procedure:
Permission to acquire the fresh human blood used for this experiment was granted by the […] University Local Ethics Committee (No. 2023-2/32, 27 January 2023). First, 30 μL of fresh male human blood was suspended with 10 mL of autoclaved Tris saline buffer (TBS buffer, 10 mM Tris, 150 mM NaCl, pH 7.2) and centrifuged thrice for 5 min at 1500 rpm. […] Three replicates were performed for each peptide dose. A sample of 20% Triton-X 100/DMSO was used as a positive control. After incubation, the 96-well plate was centrifuged at 1500 rpm for 10 min. Absorbance was measured at 414 nm using a microplate reader (Gen5 Synergy HT BioTek). The % lysis of the peptide was calculated as follows:% lysis = OD414 - OD414 (blank)/OD414 (total lysis - blank) × 100

Data set [6] concerns S. aureus ATCC 29213. Kind of data set: Resistance development by serial passages. The class given is cell-based, Staphylococcus aureus. The conditions noted are these: for MIC: Staphylococcus aureus.
Data set [7] deals with resistant Klebsiella pneumoniae (KP) strain. The class given is cell-based.
The subject of data set [8] is 3t3 cell line. The class given is cell-based, mouse. Particulars: 24 h. On the procedure:
(§1) 3T3 and HaCaT cells were grown in DMEM consisting of 1% pen/strep and 10% FBS. A total of 5 × 10^4 cells were loaded into each well of a 96-well plate and incubated at 37 °C using a 5% CO2 incubator. All samples were measured in triplicate between 0.5–32 µg/mL concentrations and incubated at 37 °C for 24 h in a 5% CO2 incubator. Only cells and Mag-2 were used as negative and positive controls, respectively. After 24 h, cell cytotoxicity was evaluated using a cell proliferation kit (MTT, Roche, Basel, Switzerland) following the kit protocol and analyzed at 550 nm and 690 nm using a microplate reader (Gen5 Synergy HT BioTek). The concentration of peptides that killed 50% of the cells was determined as the IC50 in the cytotoxicity experiments.

Data set [9] addresses T1, proteinase K (Parengyodontium album, UniProt P06873).
T1 construct: purchased Qiagen
Put plainly: Stability toward enzymatic degradation (protease resistance assay). The class given is in vitro ADME. The conditions noted are these: peptide 1 mg/mL in TBS (50 mM Tris, 150 mM NaCl, pH 7.6) with 10% DMSO; proteinase K 1 mg/mL (30 U/mg); 37 °C, overnight (also 10 min, 30 min); HPLC at 214 nm. On the procedure: Peptide solutions were prepared at a final concentration of 1 mg/mL in TBS buffer (50 mM Tris, 150 mM NaCl, pH 7.6) including 10% DMSO. The proteinase K solution was adjusted to 1 mg/mL (enzyme activity = 30 U/mg). The peptide solution was then incubated at 37 °C overnight in an orbital shaker. After incubation, the reaction was blocked by adding 1% TFA (100 µL) in water. Peptide solutions with/without the proteinase K enzyme were analyzed at 214 nm using HPLC with an analytic column (AdvanceBio Peptide Plus, 2.1 × 150 mm, 2.7 µm, LC column, Agilent Technologies, Santa Clara, CA, USA) following the linear gradient method (30 min in a range of 5–80% acetonitrile including 0.025% TFA). MIC experiments were repeated to measure biological activities after treating the peptides with proteinase K.

For data set [10], the system named is HaCaT cell line. The class given is cell-based, human. Particulars: 24 h. On the procedure: as §1

18 compounds from PMC11856857, “Protease-Resistant, Broad-Spectrum Antimicrobial Peptides with High Antibacterial and Antifungal Activity” (Life, 2025) can be followed below.

In brackets after ≈: the same amount, converted by molar mass. Entries after “also recorded” stand apart in the source; their conditions may differ. Like-named read-outs stand apart in the source and are kept apart here. Where a SMILES comes first, the peptide text is derived from it. Where no end group is shown, it is not given here.

T1 sequence (P06873 106-384): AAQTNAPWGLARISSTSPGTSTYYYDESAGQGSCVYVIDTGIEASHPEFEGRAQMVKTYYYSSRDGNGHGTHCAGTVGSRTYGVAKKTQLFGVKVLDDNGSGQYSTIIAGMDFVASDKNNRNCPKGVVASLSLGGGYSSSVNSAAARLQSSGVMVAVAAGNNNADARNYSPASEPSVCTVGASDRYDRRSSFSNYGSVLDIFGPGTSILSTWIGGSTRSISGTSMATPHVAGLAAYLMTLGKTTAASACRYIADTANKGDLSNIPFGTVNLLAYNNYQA

In general, HC50 refers to the concentration giving 50% haemolysis. Take `CC(C)C[C@@H](NC(=O)[C@H](N)CCCNC(=N)N)C(=O)N[C@H](CC(C)C)C(=O)N[C@H](CCCNC(=N)N)C(=O)N[C@H](CC(C)C)C(=O)N[C@H](CC(C)C)C(=O)N[C@H](CC(C)C)C(=O)N[C@H](CC(C)C)C(=O)N[C@H](CCCNC(=N)N)C(=O)N[C@H](CC(C)C)C(=O)N[C@H](CC(C)C)C(=O)N[C@H](CCCNC(=N)N)C(N)=O` [D-TN1] (HELM PEPTIDE1{[dR].[dL].[dL].[dR].[dL].[dL].[dL].[dL].[dR].[dL].[dL].[dR].[am]}$$$$V2.0): the “MIC S. aureus” value in data set [1] is given as 4 µg/mL (≈ 2.59 µM). Moreover, in data set [2], the “MIC C. albicans” value is given as 1 µg/mL (≈ 0.646 µM). For the same compound, the “MIC P. aeruginosa” value in data set [3] is 4 µg/mL (≈ 2.59 µM). In data set [4], the “MIC E. coli” value is reported as 8 µg/mL (≈ 5.17 µM). Further, the HC50 in data set [5] came out at 77.63 µg/mL.

On to `CC(C)C[C@@H](NC(=O)[C@@H](CC(C)C)NC(=O)[C@@H](CC(C)C)NC(=O)[C@@H](CCCNC(=N)N)NC(=O)[C@@H](CC(C)C)NC(=O)[C@@H](CC(C)C)NC(=O)[C@@H](CCCNC(=N)N)NC(=O)[C@@H](CC(C)C)NC(=O)[C@@H](CC(C)C)NC(=O)[C@H](N)CCCNC(=N)N)C(N)=O` [D-TN3] (HELM PEPTIDE1{[dR].[dL].[dL].[dR].[dL].[dL].[dR].[dL].[dL].[dL].[am]}$$$$V2.0), for which the “MIC S. aureus” value in [1] turned out to be 8 µg/mL (≈ 6.26 µM). The “MIC C. albicans” value in data set [2] is recorded as 0.25 µg/mL (≈ 0.196 µM). In data set [3], the “MIC P. aeruginosa” value worked out at 4 µg/mL (≈ 3.13 µM). For the same compound, in data set [4], the “MIC E. coli” value worked out at 2 µg/mL (≈ 1.57 µM). Also, in [5], the 50% haemolytic concentration (HC50) is 32.63 µg/mL.

The term MIC denotes the smallest concentration in the dilution series that meets the test's criterion for growth inhibition. Regarding `CNC(C)C1CCC(N)C(OC2C(N)CC(N)C(OC3OCC(C)(O)C(NC)C3O)C2O)O1` (centres unmarked) [gentamicin], the “MIC value in the sixth passage” value in [6] (S. aureus ATCC 29213, continuous serial passaging) came to 8 µg/mL (≈ 16.8 µM). In addition, the MIC in data set [6] (ATCC29213, read-out: MIC value in the sixth passage) was determined as 8 µg/mL (≈ 16.8 µM); in data set [6] (ATCC29213, read-out: initial MIC value), 1 µg/mL (≈ 2.09 µM).

Polymyxin B [reference compound]: the “MIC KP1” value in data set [7] (Table S2, strain KP1) turned out to be 16 µg/mL. Further, the “MIC KP2” value in data set [7] (Table S2, strain KP2) turned out to be 2 µg/mL. The “MIC KP8” value in data set [7] (Table S2, strain KP8) worked out at 64 µg/mL. Moreover, in [7] (Table S2, strain KP9), the “MIC KP9” value was determined as 2 µg/mL. For the same compound, the “MIC KP13” value in data set [7] (Table S2, strain KP13) came out at 16 µg/mL. For the same compound, in [7] (Table S2, strain KP22), the “MIC KP22” value turned out to be 8 µg/mL. The “MIC KP28” value in data set [7] (Table S2, strain KP28) was found to be 16 µg/mL. In addition, in data set [7] (Table S2, strain KP29), the “MIC KP29” value came to 16 µg/mL. Moreover, the “MIC KP35” value in [7] (Table S2, strain KP35) is 8 µg/mL. Besides, the “MIC KP40” value in data set [7] (Table S2, strain KP40) is 4 µg/mL. Also, the “MIC KP41” value in data set [7] (Table S2, strain KP41) came to 4 µg/mL. In addition, the “MIC KP42” value in data set [7] (Table S2, strain KP42) is 8 µg/mL. The “MIC KP46” value in [7] (Table S2, strain KP46) was 16 µg/mL. Also, the “MIC KP52” value in [7] (Table S2, strain KP52) turned out to be 8 µg/mL.

Consider RAARAAARAAR-NH2 [TN6A5], for which the “MIC S. aureus” value in data set [1] is more than 1024 µg/mL. Also, the “MIC C. albicans” value in data set [2] was determined as 128 µg/mL. For the same compound, the “MIC P. aeruginosa” value in data set [3] is listed as more than 1024 µg/mL. For the same compound, the “MIC E. coli” value in data set [4] was found to be 1024 µg/mL.

Take RALRALARALR-NH2 [TN6A1]: the “MIC S. aureus” value in data set [1] is 128 µg/mL. Also, in [2], the “MIC C. albicans” value came to 256 µg/mL. In [3], the “MIC P. aeruginosa” value worked out at 256 µg/mL. Besides, the “MIC E. coli” value in data set [4] is 128 µg/mL.

Regarding RIIRIIIRIIR-NH2 [TN6I1], the “MIC S. aureus” value in [1] came out at 16 µg/mL. In data set [2], the “MIC C. albicans” value is given as 128 µg/mL. The “MIC P. aeruginosa” value in data set [3] is on record as 128 µg/mL. Besides, the “MIC E. coli” value in data set [4] turned out to be 32 µg/mL.

For the compound RILRILIRLIR-NH2 [TN6I2], the “MIC S. aureus” value in [1] is given as 2 µg/mL. The “MIC C. albicans” value in [2] was 128 µg/mL. Besides, the “MIC P. aeruginosa” value in data set [3] is on record as 32 µg/mL. In addition, the “MIC E. coli” value in data set [4] is 16 µg/mL.

As to RLLRLLLLRLLR-NH2 [TN1], in data set [1], the “MIC S. aureus” value came to 4 µg/mL. For the same compound, the “MIC C. albicans” value in data set [2] worked out at 0.5 µg/mL. The “MIC P. aeruginosa” value in data set [3] was 32 µg/mL. Besides, the “MIC E. coli” value in [4] was 2 µg/mL.

As for “RLLRLLLRLLR [D/L-TN6, TN6 template, arginine in L-form, leucine in L- and D-forms]”, in data set [2] (CLSI M27-A3), the “MIC C. albicans” value stood at 8 µg/mL.

As for RLLRLLLRLLR-NH2 [TN6], the “MIC S. aureus” value in data set [1] was found to be 2 µg/mL. For the same compound, the “IC50 3t3” value in data set [8] came to 29.80 µg/mL. Besides, the “MIC C. albicans” value in [2] is 0.5 µg/mL. Besides, in data set [9], the “Stability toward proteinase K (HPLC)” value is “fragmented into different-sized molecules; also recorded: disappeared”. For the same compound, the “MIC P. aeruginosa” value in data set [3] came to 8 µg/mL. Besides, the “MIC E. coli” value in [4] came to 2 µg/mL. Further, in data set [10], the “IC50 HaCaT” value was 15.32 µg/mL.

RLLRLLRLLL [TN3-carboxy]: the “MIC S. aureus” value in [1] amounted to 16 µg/mL. Further, the “MIC C. albicans” value in data set [2] amounted to 1 µg/mL. Moreover, the “MIC P. aeruginosa” value in data set [3] is listed as 32 µg/mL. Further, the “MIC E. coli” value in data set [4] is 4 µg/mL.

On to RLLRLLRLLL-NH2 [TN3-amide], for which the “MIC S. aureus” value in [1] came to 8 µg/mL. For the same compound, in data set [2], the “MIC C. albicans” value worked out at 2 µg/mL. The “MIC P. aeruginosa” value in data set [3] is listed as 4 µg/mL. Also, in [4], the “MIC E. coli” value came out at 8 µg/mL.

For the compound RLLRLLRLLLL-NH2 [TN8], the “MIC S. aureus” value in data set [1] was 8 µg/mL. In addition, the “MIC C. albicans” value in [2] stood at 0.5 µg/mL. The “MIC P. aeruginosa” value in data set [3] is recorded as 256 µg/mL. Besides, the “MIC E. coli” value in [4] was found to be 4 µg/mL.

For the compound RLLRLLRLLLRLLRLLR-NH2 [TN6(2)], the “MIC S. aureus” value in data set [1] came to 16 µg/mL. The “MIC C. albicans” value in data set [2] is 32 µg/mL. Moreover, in data set [3], the “MIC P. aeruginosa” value is recorded as 64 µg/mL. The “MIC E. coli” value in [4] came out at 16 µg/mL.

As to RRLLRLLLRLLR-NH2 [RTN6], the “MIC S. aureus” value in data set [1] worked out at 1 µg/mL. In addition, the “MIC C. albicans” value in data set [2] came to 4 µg/mL. Also, the “MIC P. aeruginosa” value in data set [3] was determined as 8 µg/mL. In [4], the “MIC E. coli” value was found to be 2 µg/mL.

As for RVLRVLRVLL-NH2 [TN3V1], the “MIC S. aureus” value in data set [1] was 8 µg/mL. In [2], the “MIC C. albicans” value worked out at 4 µg/mL. Moreover, the “MIC P. aeruginosa” value in data set [3] is recorded as 32 µg/mL. Further, in data set [4], the “MIC E. coli” value stood at 16 µg/mL.

For the compound RVVRVVRVVV-NH2 [TN3V9], the “MIC S. aureus” value in [1] is given as 16 µg/mL. In addition, the “MIC C. albicans” value in data set [2] is on record as 128 µg/mL. Further, in data set [3], the “MIC P. aeruginosa” value was determined as 256 µg/mL. Further, in data set [4], the “MIC E. coli” value is reported as 64 µg/mL.
